The results in this text go back to patent US10745402B2, “Morphinan derivatives and use thereof” (PURDUE PHARMA L.P., priority 2017, dated 2020).

Series [1] addresses T1, μ-opioid receptor (Homo sapiens, UniProt P35372). Put plainly: β-Arr2 activity response in U2OS cells, μ-opioid receptor. It is filed as cell-based. How it is done:
(§1) TABLE 4 provides activity response of certain Compounds of the present disclosure to the μ- and κ-opioid receptors that was determined in the above-described functional assays using U2OS cells.

Series [2] concerns Sprague-Dawley rats. Put plainly: Hot plate analgesia in rats (observation of sedation). Type of series: in vivo, rat. The method, then:
To assess the actions of a Compound of the present disclosure for the treatment or prevention of acute pain, the rat hot plate test can also be used. Rats are tested using a hot plate apparatus consisting of a clear plexiglass cylinder with a heated metal floor maintained at a temperature of 48-52° C. (Model 7280, commercially available from Ugo Basile of Italy). […] Hot plate latencies are measured immediately before (pre-treatment) and 1, 3, and 5 hours following administration of a Compound of the present disclosure. The nocifensive behavioral endpoint is defined as any of the following: 1) paw withdrawal, either as a sustained lift or with shaking or licking; 2) alternating foot lifting; 3) escape or attempted escape from the testing device; or 4) vocalization. Data are expressed as response latency(s) and the percentage of the maximal possible effect is calculated as described above for the tail flick test. […]
Male, Sprague-Dawley rats (Harlan, weight 211-246 g; n=5-10/group) were baselined (“BL”) for latency on a hot plate which was set to 52° C. the day prior to dosing. […] The next day, vehicle (0.5% MC) po, Compound 1 po; or morphine sc, the positive control, were administered and thermal latency was assessed 1, 3, and 5 hours after dosing.
Data were analyzed by a two-way ANOVA using a Bonferroni Multiple Comparisons test, where *P<0.05 and ****P<0.0001 vs vehicle. […]

Series [3] deals with T2, κ-opioid receptor (Homo sapiens, UniProt P41145). Put plainly: [35S]GTPγS functional assay, κ-opioid receptor (HEK-293 or CHO cells). It is filed as biochemical. The arrangement: made in house; host or cells: HEK-293 or CHO. How it is done:
Membranes from HEK-293 cells, CHO or U-2 OS cells expressing the recombinant human kappa opioid receptor (κ) were prepared by lysing cells in ice cold hypotonic buffer (2.5 mM MgCl2, 50 mM HEPES, pH 7.4) (10 mL/10 cm dish) followed by homogenization with a tissue grinder/Teflon pestle. Membranes were collected by centrifugation at 30,000×g for 15 min at 4° C. and pellets were resuspended in hypotonic buffer to a final concentration of 1-3 mg/mL. Protein concentrations were determined using the BioRad protein assay reagent with bovine serum albumen as standard. Aliquots of κ receptor membranes were stored at −80° C.
Functional [^35S]GTPγS binding assays were conducted as follows. κ opioid receptor membrane solution was prepared by sequentially adding final concentrations of 0.026 μg/μl κ membrane protein (in-house), 10 μg/mL saponin, 3 μM GDP and 0.20 nM [^35S]GTPγS to binding buffer (100 mM NaCl, 10 mM MgCl2, 20 mM HEPES, pH 7.4) on ice. […] Fifty μl/well scintillation cocktail (Perkin Elmer, Shelton, Conn.) was added and plates were counted in a Packard Top-Count for 1 min/well.
(§2) TABLE 3 provides activity response of certain Compounds of the present disclosure to the μ- and κ-opioid receptors that was determined in the above-described functional assays using HEK-293 or CHO cells.

For series [4], the target named is T1, μ-opioid receptor. Briefly: [35S]GTPγS functional assay, μ-opioid receptor (HEK-293 or CHO cells). Also noted: made in house; host or cells: HEK-293 or CHO. Type of series: biochemical. How it is done:
[^35S]GTPγS functional assays were conducted using freshly thawed μ-receptor membranes prepared in-house from a cell line expressing recombinant μ opioid receptor in a HEK-293, CHO or U-2 OS cell background, or purchased from a commercial source (Perkin Elmer, Shelton, Conn.; or DiscovRx, Fremont, Calif.). Assay reactions were prepared by sequentially adding the following reagents to binding buffer (100 mM NaCl, 10 mM MgCl2, 20 mM HEPES, pH 7.4) on ice (final concentrations indicated): membrane protein (0.026 mg/mL), saponin ([…]), GDP ([…]) and [^35S]GTPγS (0.20 nM; Perkin Elmer, Shelton, Conn.). The prepared membrane solution (190 μl/well) was transferred to 96-shallow well polypropylene plates containing 10 μl of 20× concentrated stock solutions of the agonist [D-Ala^2, N-methyl-Phe^4 Gly-ol^5]-enkephalin (DAMGO) prepared in dimethyl sulfoxide (DMSO). Plates were incubated for 30 min at about 25° C. with shaking. […] BetaScint scintillation cocktail (Perkin Elmer, Shelton, Conn.) was added (50 μl/well) and plates were counted using a Packard Top-Count for 1 min/well. Data were analyzed using the sigmoidal dose-response curve fitting functions in GraphPad PRISM v. […]
as §2
(GTPγS is a poorly hydrolysed GTP analogue; its binding reports G protein activation.)

For series [5], the system named is Sprague-Dawley rats. Briefly: Conditioned Place Preference (CPP) in rats. The settings on record: po in 0.5% MC, day 8, one-way ANOVA. It is filed as in vivo, rat. The text has this: Conditioned Place Preference (CPP) test is a test typically used to measure drug liking.
Male, Sprague-Dawley rats (Harlan, weight 213-240 g) at the beginning of the dosing paradigm were baselined (“BL”) for initial preference (pretest; day 1) using automated conditioning chambers (MedAssociates, Fairfax, Vt.); n=10/group. An unbiased counterbalanced design was used in which rats were randomly assigned to each group with respect to compartment pairings based on weight.
Compound 1 was formulated in 0.5% MC and administered po., while oxycodone, the positive control was dissolved in saline and administered sc.
During the first conditioning session, half of the rats were confined to the black compartment paired with either vehicle (0.5% MC) po, oxycodone sc, or Compound 1 po administration, while the other half were placed in white compartment with similar pairings.
Rats were conditioned on alternate days for 6 total sessions (3 vehicle/3 oxycodone or Compound 1). Control rats received vehicle at each conditioning session. […]
Conditioned Place Preference (CPP) was determined on day 8, and is represented as the difference between the time (seconds) the rat spent in the drug-paired and vehicle-paired compartments. Data are represented as the means±S.E.M., and were analyzed by a one-way ANOVA where *P<0.05 vs vehicle.

Series [6] addresses T2, κ-opioid receptor. Put plainly: β-Arr2 activity response in U2OS cells, κ-opioid receptor. It is filed as cell-based. The arrangement: expressed in transfected cells; host or cells: U2OS (U-2 OS). How it is done: as §1

T2 sequence (P41145 whole entry): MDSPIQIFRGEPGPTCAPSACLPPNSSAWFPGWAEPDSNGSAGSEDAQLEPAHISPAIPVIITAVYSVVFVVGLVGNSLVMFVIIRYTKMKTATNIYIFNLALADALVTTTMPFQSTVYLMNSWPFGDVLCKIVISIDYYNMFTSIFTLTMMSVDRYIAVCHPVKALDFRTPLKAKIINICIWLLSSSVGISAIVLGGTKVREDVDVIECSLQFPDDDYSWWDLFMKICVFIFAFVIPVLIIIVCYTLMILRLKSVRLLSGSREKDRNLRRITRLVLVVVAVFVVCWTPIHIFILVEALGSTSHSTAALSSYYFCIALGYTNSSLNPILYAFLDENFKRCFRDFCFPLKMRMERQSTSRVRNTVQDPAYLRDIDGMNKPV
T1 sequence (P35372 whole entry, species assumed): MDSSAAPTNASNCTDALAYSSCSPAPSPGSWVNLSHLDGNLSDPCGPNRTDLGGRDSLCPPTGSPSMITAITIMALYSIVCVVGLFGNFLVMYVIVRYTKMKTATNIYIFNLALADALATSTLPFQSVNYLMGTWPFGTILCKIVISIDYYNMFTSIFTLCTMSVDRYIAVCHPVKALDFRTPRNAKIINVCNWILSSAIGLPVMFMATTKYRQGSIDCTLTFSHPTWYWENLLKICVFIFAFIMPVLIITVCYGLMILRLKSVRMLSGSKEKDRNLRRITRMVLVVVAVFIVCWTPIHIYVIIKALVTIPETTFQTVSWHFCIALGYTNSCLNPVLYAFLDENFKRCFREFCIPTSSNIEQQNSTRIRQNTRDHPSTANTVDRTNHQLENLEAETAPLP

As for `CN1CC[C@]23CCCC[C@@]2(O)[C@H]1Cc1ccc(C(N)=O)cc13` [Compound 1, (4bS,8aS,9R)-8a-hydroxy-11-methyl-6,7,8,8a,9,10-hexahydro-5H-9,4b-(epiminoethano)phenanthrene-3-carboxamide], the EC50 (in general, the concentration at which the effect is half-maximal) at μ-opioid receptor [1] is 36.7 ± 5.4 nM; on κ-opioid receptor [3], 620 ± 91.1 nM; on μ-opioid receptor [4], 44.2 ± 11.9 nM; at κ-opioid receptor [6], greater than 20000 nM. For the same compound, the Emax (in general, the greatest response seen or fitted, relative to the assay's reference) was 8.58 ± 0.3% at μ-opioid receptor [1] (U2OS cells); 14.9 ± 0.63% on κ-opioid receptor [3] (HEK-293 or CHO cells, relative to U69,593, read-out: GTPγD κ Emax); 50.5 ± 0.95% on μ-opioid receptor [4] (HEK-293 or CHO cells, relative to DAMGO, read-out: GTPγD μ Emax); -0.83 ± 0.17% on κ-opioid receptor [6] (U2OS cells). Also, the “appearance of animals (sedation) in hot plate study” value in the series on Sprague-Dawley rats [2] (30-75 mg/kg po) is “appeared to be sedate”. Also, the “Conditioned Place Preference compared to the vehicle group” value in the series with Sprague-Dawley rats [5] is “not statistically significant”.

For `CN1CC[C@]23c4c5ccc(O)c4O[C@H]2[C@@H](O)C=C[C@H]3[C@H]1C5` [morphine, reference compound], the “appearance of animals (sedation) in hot plate study” value with Sprague-Dawley rats [2] (sc, positive control) is recorded as “appeared to be sedate”.
